Results from PMC6263361 (Molecules, 2011).
Read-outs that look alike come from different tables or passages of the source. Values belong to the molecule of their own block, whether it stands above or below them.

Tests used:
[1] = target: T1, GST-E2F-4 (Homo sapiens, UniProt Q16254); experiment: SPR interaction analysis with immobilized recombinant GST-E2F-4; type: binding; settings: for affinity for E2F-4, fold weaker than that of etoposide: relative to etoposide
T1 construct: The 1239-bp cDNA fragment of E2F-4 was amplified from I.M.A.G.E cDNA clone; made in house; host or cells: E. coli BL21(DE3)pLysS
Description: (§1) The gene encoding E2F-4 protein was engineered into an E. coli expression system as a GST fusion protein (GST-E2F-4) and purified by affinity interaction using glutathione Sepharose beads. The GST-E2F-4 was immobilized on a CM5 sensor chip using the same procedure as described for the synthetic ETBP.
The 1239-bp cDNA fragment of E2F-4 was amplified from I.M.A.G.E cDNA clone (clone ID CL0B005ZB12, Invitrogen) by PCR with the primers 5’-[…]-3’ (up) and 5’-[…]-3’ (down) and subcloned into pGEM-T vector (Promega). Following purification and digestion with EcoRI and XhoI, the cDNA fragment was subcloned into the expression vector pET28a(+) (Novagen). The construct was transformed into E. coli BL21(DE3)pLysS (Novagen). Heterologous gene expression was induced by addition of 0.1 mM isopropyl β-D-1-thiogaractopyranoside (IPTG). The culture was continued at 37 °C with vigorous shaking for 1 h. The cells were then harvested and suspended in binding buffer (0.5 M NaCl, 5 mM 2-mercaptoethanol in 50 mM sodium phosphate, pH 7.5). Following sonication and centrifugation the soluble fraction was obtained and purified using the FPLC instrument and GSTrap column (1 mL, GE Healthcare) and then subjected to kinetic analysis by SPR. The purified GST-E2F-4 in resulting fraction was detected by a SDS-PAGE followed by CBB staining or Western blotting using rabbit anti-GST (primary) and anti-rabbit IgG-AP conjugate (secondary) antibodies (Sigma-Aldrich) with BCIP/NBT solution.
(§2) Analysis of binding between etopside and synthetic ETBP or recombinant GST-E2F-4 was performed with a surface plasmon resonance (SPR) biosensor (Biacore®3000, GE Healthcare). The synthetic ETBP or protein dissolved in each buffer (ETBP16: 10 mM acetate buffer, pH 4.0−10% DMSO; ETBP10, HG102: 10 mM carbonate buffer, pH 8.5; protein: 10 mM acetate buffer, pH 4.0) was injected over a CM5 sensor chip at 10 µL/min and captured on the carboxymethyl dextran matrix via an amine coupling reaction. The surface was activated by injecting a solution containing 200 mM EDC and 50 mM NHS for 14 min. The protein or peptide was injected and the surface was then blocked by injecting 1 M ethanolamine at pH 8.5 for 14 min. […] BIAevaluation 3.2 software (GE Healthcare) was used to determine the kinetic parameters.

[2] = target: T2, E2F-4/DP2 (Homo sapiens, UniProt Q16254); experiment: Luciferase reporter gene assay, E2F-4/DP2 expressing CHO-K1 cells; type: cell-based; settings: 15 h incubation, read-out: IC50 of reporter gene transcription, E2F-4/DP2
T2 construct: expressed in transfected cells; host or cells: CHO-K1
Description: (§3) E2F-4 functions as a transcription factor, forming a heterodimeric complex with DP via the DP binding domain (G86-I181) (Figure 9).
(§4) The vectors (pCMV-E2F-4, pCMV-DP1, pCMV-DP2) for the luciferase reporter gene assay were kindly provided by Dr. Junji Magae (Institute of Research and Innovation (IRI), Kashiwa, Chiba, Japan) The reporter gene plasmid (pGL3-GC box) was constructed by insertion of double stranded DNA with XhoI and HindIII site, which was generated by an annealing of 60 pmol of oligonucleotides 5’-[…]-3’ and 5’-[…]-3’ into pGL3 vector (Promega). Transfection was then performed using Lipofectamine 2000 (Invitrogen) in a 96-well format according to the manufacturer’s instructions (Invitrogen).

[3] = target: T3, E2F-4/DP1 (Homo sapiens, UniProt Q16254); experiment: Luciferase reporter gene assay, E2F-4/DP1 expressing CHO-K1 cells; type: cell-based; settings: 15 h incubation, read-out: IC50 of reporter gene transcription, E2F-4/DP1
T3 construct: expressed in transfected cells; host or cells: CHO-K1
Description: as §3, §4

[4] = system: control peptide HG102 (SGVMLGDPN); experiment: SPR interaction analysis between etoposide and control peptide HG102; type: binding; settings: etoposide 3.2-80 µM injected
Experimental: Synthetic ETBP16 or ETBP10 was immobilized on a CM5 censor chip by an amine coupling reaction. […] By contrast, no response was observed against a control peptide HG102 ([…]).
Analysis of binding between etopside and synthetic ETBP or recombinant GST-E2F-4 was performed with a surface plasmon resonance (SPR) biosensor (Biacore®3000, GE Healthcare). The synthetic ETBP or protein dissolved in each buffer (ETBP16: 10 mM acetate buffer, pH 4.0−10% DMSO; ETBP10, HG102: 10 mM carbonate buffer, pH 8.5; protein: 10 mM acetate buffer, pH 4.0) was injected over a CM5 sensor chip at 10 µL/min and captured on the carboxymethyl dextran matrix via an amine coupling reaction. The surface was activated by injecting a solution containing 200 mM EDC and 50 mM NHS for 14 min. The protein or peptide was injected and the surface was then blocked by injecting 1 M ethanolamine at pH 8.5 for 14 min. This reaction immobilized 1279 resonance units (RU) of ETBP16, 3400 RU of ETBP10, 350 RU of HG102, 11421 RU of GST-E2F-4, 4388 RU of GST, and 7500 RU of top II (usb). […] BIAevaluation 3.2 software (GE Healthcare) was used to determine the kinetic parameters.

[5] = system: CHO-K1 cells; experiment: MTS assay of cell proliferation; type: cell-based; settings: concentrations used in the reporter assay; data not shown
[6] = target: GST (Schistosoma japonicum, UniProt P08515); experiment: SPR interaction analysis with immobilized GST tag alone; type: binding; settings: etoposide 2.5-100 µM injected
Experimental: as §1, §2

[7] = SPR, read-out: KD between GST-E2F-4 and each compound

T1 sequence (Q16254 whole entry, the tested form may be a part): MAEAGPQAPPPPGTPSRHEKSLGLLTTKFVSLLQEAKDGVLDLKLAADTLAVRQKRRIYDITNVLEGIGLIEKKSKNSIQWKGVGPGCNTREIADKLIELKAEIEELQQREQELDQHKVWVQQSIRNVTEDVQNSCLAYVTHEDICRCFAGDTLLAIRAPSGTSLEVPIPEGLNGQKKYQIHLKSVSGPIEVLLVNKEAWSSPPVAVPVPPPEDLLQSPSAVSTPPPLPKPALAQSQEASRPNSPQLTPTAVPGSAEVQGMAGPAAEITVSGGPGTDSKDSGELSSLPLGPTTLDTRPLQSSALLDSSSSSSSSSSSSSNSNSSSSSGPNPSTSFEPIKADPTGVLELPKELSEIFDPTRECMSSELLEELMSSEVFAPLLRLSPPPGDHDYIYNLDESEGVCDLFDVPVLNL
GST, sequence (P08515 whole entry): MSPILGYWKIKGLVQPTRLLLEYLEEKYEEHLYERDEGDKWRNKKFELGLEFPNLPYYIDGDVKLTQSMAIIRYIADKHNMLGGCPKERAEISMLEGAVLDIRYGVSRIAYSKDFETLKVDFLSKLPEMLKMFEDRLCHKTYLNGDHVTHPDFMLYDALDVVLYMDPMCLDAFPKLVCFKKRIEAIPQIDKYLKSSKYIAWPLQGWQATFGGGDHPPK
T2 sequence (Q16254 whole entry, species assumed): as the sequence (Q16254 whole entry, the tested form may be a part) above
T3 sequence (Q16254 whole entry, species assumed): as the sequence (Q16254 whole entry, the tested form may be a part) above

Kd [1, 7]: 75 µM
IC50 [2]: 1.16 µM
IC50 [3]: 1.56 µM
SPR response against GST tag alone [6]: did not show any response
Structure (SMILES): COc1cc([C@@H]2c3cc4c(cc3[C@@H](O[C@@H]3O[C@@H]5CO[C@@H](C)O[C@H]5[C@H](O)[C@H]3O)[C@H]3COC(=O)[C@H]23)OCO4)cc(OC)c1O [Etoposide]
SPR response against control peptide HG102 [4]: no response
effect in terms of cell growth in MTS assay [5]: no effect

Structure (SMILES): COc1cc([C@@H]2c3cc4c(cc3[C@H](O)[C@H]3COC(=O)[C@H]23)OCO4)cc(OC)c1OC [Podophyllotoxin, podophyllotoxin]
Kd [1]: 308 µM
affinity for E2F-4, fold weaker than that of etoposide ([1]; SPR): approximately four

SPR response against GST-E2F-4 ([1]; in the concentration range tested): no response
Structure (SMILES): COc1cc(C(=O)O)cc(OC)c1O [Syringic acid]

affinity for E2F-4, fold weaker than that of etoposide ([1]; SPR): nine
Kd [1, 7]: 654 µM
Structure (SMILES): COc1cc([C@@H]2c3cc4c(cc3[C@@H](O[C@@H]3O[C@@H]5CO[C@@H](c6cccs6)O[C@H]5[C@H](O)[C@H]3O)[C@H]3COC(=O)[C@H]23)OCO4)cc(OC)c1O [Teniposide, teniposide]
